Drawing on patent US7205305B2, “Inhibitors of p38” (Vertex Pharmaceuticals Incorporated, priority 1996, dated 2007), this text covers IC50 for 32 molecules.

The test system of assay [1] is TNF production in LPS-stimulated PBMCs. In words: Inhibition of TNF production in LPS-stimulated PBMCs ("cell"). The format is cell-based, human. The following applies: Homo sapiens, PBMC. The procedure: (§1) Inhibitors were serially diluted in DMSO from a 20 mM stock. At least 6 serial dilutions were prepared. Then 4× inhibitor stocks were prepared by adding 4 μl of an inhibitor dilution to 1 ml of RPMI1640 medium/10% fetal bovine serum. The 4× inhibitor stocks contained inhibitor at concentrations of 80 μM, 32 μM, 12.8 μM, 5.12 μM, 2.048 μM, 0.819 μM, 0.328 μM, 0.131 μM, 0.052 μM, 0.021 μM etc. The 4× inhibitor stocks were pre-warmed at 37° C. until use.
(§2) Fresh human blood buffy cells were separated from other cells in a Vacutainer CPT from Becton & Dickinson (containing 4 ml blood and enough DPBS without Mg^2+/Ca^2+ to fill the tube) by centrifugation at 1500×g for 15 min. Peripheral blood mononuclear cells (PBMCs), located on top of the gradient in the Vacutainer, were removed and washed twice with RPMI1640 medium/10% fetal bovine serum. PBMCs were collected by centrifugation at 500×g for 10 min. The total cell number was determined using a Neubauer Cell Chamber and the cells were adjusted to a concentration of 4.8×10^6 cells/ml in cell culture medium (RPMI1640 supplemented with 10% fetal bovine serum).
(§3) We placed 100 μl of cell suspension or whole blood in each well of a 96-well cell culture plate. Then we added 50 μl of the 4× inhibitor stock to the cells. Finally, we added 50 μl of a lipopolysaccharide (LPS) working stock solution (16 ng/ml in cell culture medium) to give a final concentration of 4 ng/ml LPS in the assay. The total assay volume of the vehicle control was also adjusted to 200 μl by adding 50 μl cell culture medium. The PBMC cells or whole blood were then incubated overnight (for 12–15 hours) at 37° C./5% CO2 in a humidified atmosphere.
(§4) The next day the cells were mixed on a shaker for 3–5 minutes before centrifugation at 500×g for 5 minutes. Cell culture supernatants were harvested and analyzed by ELISA for levels of IL-1b (R & D Systems, Quantikine kits, #DBL50), TNF-α (BioSource, #KHC3012), IL-6 (Endogen, #EH2-IL6) and IL-8 (Endogen, #EH2-IL8) according to the instructions of the manufacturer. The ELISA data were used to generate dose-response curves from which IC50 values were derived.

The test system of assay [2] is TNF production in whole blood. In words: Inhibition of TNF production in LPS-stimulated whole blood ("WB"). The format is cell-based, human. The note with it: Homo sapiens. The procedure: as §1
(§5) Alternatively, whole blood containing an anti-coagulant was used directly in the assay.
as §3, §4

In assay [3] the test system is IL-6 production in whole blood. In words: Inhibition of IL-6 production in LPS-stimulated whole blood ("WB"). Format: cell-based, human. The note with it: Homo sapiens. The procedure: as §1, §5, §3, §4
In assay [4] the test system is IL-1 production in whole blood. In words: Inhibition of IL-1 production in LPS-stimulated whole blood ("WB"). The format is cell-based, human. The following applies: Homo sapiens. The procedure:
as §1, §5, §3, §4

Assay [5] concerns IL-1 production in LPS-stimulated PBMCs. The assay can be described thus: Inhibition of IL-1 production in LPS-stimulated PBMCs ("cell"). Format: cell-based, human. The note with it: Homo sapiens, PBMC. The procedure:
as §1, §2, §3, §4

Assay [6] addresses activated p38 (Homo sapiens, UniProt Q16539). In words: Inhibition of phosphorylation of EGF receptor peptide ("kinase"). The format is biochemical. The note with it: inhibition of phosphorylation of EGF receptor peptide by activated p38. The procedure:
This assay was carried out in the presence of 10 mM MgCl2, 25 mM β-glycerophosphate, 10% glycerol and 100 mM HEPES buffer at pH 7.6. […] The stock solution was aliquotted into vials. A fixed volume of DMSO or inhibitor in DMSO (final concentration of DMSO in reaction was 5%) was introduced to each vial, mixed and incubated for 15 minutes at room temperature. EGF receptor peptide, […], a phosphoryl acceptor in p38-catalyzed kinase reaction (1), was added to each vial to a final concentration of 200 μM. The kinase reaction was initiated with ATP (100 μM) and the vials were incubated at 30° C. After 30 minutes, the reactions were quenched with equal volume of 10% trifluoroacetic acid (TFA).
The phosphorylated peptide was quantified by HPLC analysis. Separation of phosphorylated peptide from the unphosphorylated peptide was achieved on a reverse phase column (Deltapak, 5 μm, C18 100D, part no. 011795) with a binary gradient of water and acteonitrile, each containing 0.1% TFA.

activated p38, sequence (Q16539 whole entry): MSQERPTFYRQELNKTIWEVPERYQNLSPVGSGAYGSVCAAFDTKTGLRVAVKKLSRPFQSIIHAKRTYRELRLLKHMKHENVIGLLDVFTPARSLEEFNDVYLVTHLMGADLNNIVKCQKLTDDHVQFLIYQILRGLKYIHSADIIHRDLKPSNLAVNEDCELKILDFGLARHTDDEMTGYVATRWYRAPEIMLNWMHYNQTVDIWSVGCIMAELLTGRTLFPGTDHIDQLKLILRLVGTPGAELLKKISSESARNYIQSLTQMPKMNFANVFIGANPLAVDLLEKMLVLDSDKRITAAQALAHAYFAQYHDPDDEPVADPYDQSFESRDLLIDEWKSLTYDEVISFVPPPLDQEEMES

In the case of `NC(=O)C(c1cccc(-c2ccccc2)n1)c1c(Cl)cccc1Cl` (centres unmarked) [202/301], the IC50 is 100 to 500 nM in assay [1]; at least 500 nM in assay [2]; at least 500 nM in assay [3]; at least 500 nM in assay [4]; 100 to 500 nM in assay [5]; at most 100 nM in assay [6].
As for `O=c1ncn2nc(Sc3ccc(F)cc3)ccc2c1-c1c(Cl)cccc1Cl` [Compound 12], the IC50 is 100 to 500 nM in assay [1]; at least 500 nM in assay [2]; at least 500 nM in assay [3]; at least 500 nM in assay [4]; 100 to 500 nM in assay [5]; 100 to 1000 nM in assay [6].
Regarding `Cc1ccccc1Sc1ccc2c(-c3c(Cl)cccc3Cl)c(=O)ncn2n1` [Compound 23], the IC50 in assay [1] is at least 500 nM; in assay [2], at least 500 nM; in assay [3], at least 500 nM; in assay [4], at least 500 nM; in assay [5], 100 to 500 nM; in assay [6], 100 to 1000 nM.
For the molecule `O=c1ncn2nc(Sc3ccc(F)c(Cl)c3)ccc2c1-c1c(Cl)cccc1Cl` [Compound 24], the half-maximal inhibitory concentration (IC50) in assay [1] is 100 to 500 nM; in assay [2], at least 500 nM; in assay [4] it was at least 500 nM; in assay [5], 100 to 500 nM; in assay [6] it was 100 to 1000 nM.
For the molecule `COC(=O)c1ccccc1Sc1ccc2c(-c3c(Cl)cccc3Cl)c(=O)ncn2n1` [Compound 26], the IC50 in assay [1] is 100 to 500 nM; in assay [2], at least 500 nM; in assay [3], at least 500 nM; in assay [4] it was at least 500 nM; in assay [5], at most 100 nM; in assay [6], at least 1000 nM.
With `O=C(O)c1ccccc1Sc1ccc2c(-c3c(Cl)cccc3Cl)c(=O)ncn2n1` [Compound 27], the IC50 is at least 500 nM in assay [1]; at least 500 nM in assay [2]; at least 500 nM in assay [3]; at least 500 nM in assay [4]; at least 500 nM in assay [5]; 100 to 1000 nM in assay [6].
On to `O=c1ncn2nc(Sc3ccccn3)ccc2c1-c1c(Cl)cccc1Cl` [Compound 30], for which the IC50 in assay [1] was at least 500 nM; in assay [4], at least 500 nM; in assay [5] it was at least 500 nM; in assay [6], at least 1000 nM.
As to `COC(=O)CCc1ccc(SC2=NN3CNC(=O)C(c4c(Cl)cccc4Cl)=C3C=C2)cc1` [Compound 120], the IC50 in assay [1] is at least 500 nM; in assay [2] it was at least 500 nM; in assay [3], at least 500 nM; in assay [4] it was at least 500 nM; in assay [5], 100 to 500 nM.
On to `Cc1cc(F)ccc1SC1=NN2CNC(=O)C(c3c(Cl)cccc3Cl)=C2C=C1` [Compound 131], for which the IC50 in assay [1], in assay [5] and in assay [6] was at most 100 nM each time.
Regarding `Nc1ccc(F)c(C2=C3C=CC(Sc4ccc(F)cc4)=NN3CNC2=O)c1Cl` [Compound 132], the results for the half-inhibitory concentration (IC50) in assay [1], in assay [5] and in assay [6] were 100 to 500 nM, at most 100 nM and at most 100 nM, respectively.
Regarding `Cc1cc(SC2=NN3CNC(=O)C(c4c(Cl)cccc4Cl)=C3C=C2)c(Cl)cc1F` [Compound 133], the IC50 in assay [1], in assay [5] and in assay [6] was at most 100 nM in each case.
As for `COc1cc(Cl)c(C2=C3C=CC(Sc4ccc(F)cc4)=NN3CNC2=O)cc1OC` [Compound 134], the IC50 was at least 500 nM in assay [1], 100 to 500 nM in assay [5] and at most 100 nM in assay [6].
For `Cc1cc(Cl)ccc1Sc1ccc(C(C(N)=O)c2c(Cl)cccc2Cl)nn1` (centres unmarked) [Compound 206], the IC50 in assay [1] was at least 500 nM; in assay [5], at least 500 nM; in assay [6], 100 to 1000 nM.
Turning to `NC(=O)C(c1cccc(-c2ccc(Cl)cc2)n1)c1c(Cl)cccc1Cl` (centres unmarked) [Compound 310], the figures for the half-inhibitory concentration (IC50) in assay [1], in assay [5] and in assay [6] were at least 500 nM, at least 500 nM and 100 to 1000 nM, respectively.
Turning to `Cc1ccc(-c2cccc(C(C(N)=O)c3c(Cl)cccc3Cl)n2)cc1` (centres unmarked) [Compound 311], the results for the IC50 in assay [1], in assay [5] and in assay [6] were at least 500 nM, at least 500 nM and 100 to 1000 nM, respectively.
In the case of `NC(=O)C(c1cccc(-c2ccc(F)c(Cl)c2)n1)c1c(Cl)cccc1Cl` (centres unmarked) [Compound 313], the IC50 is at least 500 nM in assay [1], at least 500 nM in assay [5] and 100 to 1000 nM in assay [6].
As to `NC(=O)C(c1cccc(-c2cccs2)n1)c1c(Cl)cccc1Cl` (centres unmarked) [Compound 317], the half-inhibitory concentration (IC50) in assay [1] is at least 500 nM; in assay [5], at least 500 nM; in assay [6] it was at least 1000 nM.
Consider `NC(=O)C(c1cccc(-c2cccc(Cl)c2)n1)c1c(Cl)cccc1Cl` (centres unmarked) [Compound 320], for which the IC50 in assay [1] is 100 to 500 nM; in assay [5], 100 to 500 nM; in assay [6], at most 100 nM.
For the molecule `COc1cccc(-c2cccc(C(C(N)=O)c3c(Cl)cccc3Cl)n2)c1` (centres unmarked) [Compound 322], the IC50 was at least 500 nM in assay [1], at least 500 nM in assay [5] and 100 to 1000 nM in assay [6].
`NC(=O)C(c1cccc(-c2cccc(F)c2)n1)c1c(Cl)cccc1Cl` (centres unmarked) [Compound 323]: the IC50 was 100 to 500 nM in assay [1], 100 to 500 nM in assay [5] and 100 to 1000 nM in assay [6].
Turning to `COc1ccccc1-c1cccc(C(C(N)=O)c2c(Cl)cccc2Cl)n1` (centres unmarked) [Compound 324], the IC50 in assay [1] was at least 500 nM; in assay [5], 100 to 500 nM; in assay [6], 100 to 1000 nM.
As for `NC(=O)C(c1cccc(-c2ccc(F)c(Cl)c2)n1)c1c(F)cccc1Cl` (centres unmarked) [Compound 333], the IC50 in assay [1] is at least 500 nM; in assay [5], at least 500 nM; in assay [6], 100 to 1000 nM.
For the molecule `NC(=O)C(c1cccc(-c2cccc(Cl)c2)n1)c1c(F)cccc1Cl` (centres unmarked) [Compound 341], the figures for the 50% inhibitory concentration (IC50) in assay [1], in assay [5] and in assay [6] were 100 to 500 nM, 100 to 500 nM and 100 to 1000 nM, respectively.
`NC(=O)C(c1cccc(-c2ccccc2CN2CCCC2)n1)c1c(Cl)cccc1Cl` (centres unmarked) [Compound 350]: the IC50 is at least 500 nM in assay [1], 100 to 500 nM in assay [5] and at least 1000 nM in assay [6].
For the molecule `NC(=O)C(c1cccc(-c2ccccc2CNCCO)n1)c1c(Cl)cccc1Cl` (centres unmarked) [Compound 351], the 50% inhibitory concentration (IC50) in assay [1] is at least 500 nM; in assay [5], at least 500 nM; in assay [6], at least 1000 nM.
As for `NC(=O)C(c1cccc(-c2cccc(C(F)(F)F)c2)n1)c1c(F)cccc1Cl` (centres unmarked) [Compound 353], the IC50 in assay [1] is at least 500 nM; in assay [5] it was at least 500 nM; in assay [6], 100 to 1000 nM.
For the molecule `NC(=O)C(c1cccc(-c2ccccc2CNc2ccccc2)n1)c1c(Cl)cccc1Cl` (centres unmarked) [Compound 358], the IC50 in assay [1] was at least 500 nM; in assay [5] it was at least 500 nM; in assay [6] it was 100 to 1000 nM.
On to `Cc1cc(F)ccc1-c1cccc(C(C(N)=O)c2c(F)cccc2Cl)n1` (centres unmarked) [Compound 361], for which the IC50 in assay [1] is at least 500 nM; in assay [5], 100 to 500 nM; in assay [6], 100 to 1000 nM.
`Cc1ccccc1-c1cccc(N(C(N)=O)c2c(C)cccc2C)n1` [Compound 405]: the IC50 is 100 to 500 nM in assay [1], at most 100 nM in assay [5] and at most 100 nM in assay [6].
Consider `Cc1ccc(-c2cccc(N(C(N)=O)c3c(Cl)cccc3Cl)n2)cc1` [Compound 406], for which the figures for the IC50 in assay [1], in assay [5] and in assay [6] were at least 500 nM, 100 to 500 nM and 100 to 1000 nM, respectively.
For `Cc1cccc(C)c1N(C(N)=O)c1cccc(-c2ccc(F)cc2)n1` [Compound 407] the same measures were at least 500 nM, 100 to 500 nM and 100 to 1000 nM.
On to `NC(=O)N(c1cccc(-c2ccc(Cl)cc2)n1)c1c(Cl)cccc1Cl` [Compound 408], for which the figures for the half-maximal inhibitory concentration (IC50) in assay [1], in assay [5] and in assay [6] were 100 to 500 nM, at most 100 nM and at most 100 nM, respectively.

The IC50 is the concentration needed to halve the response being measured. Read a high IC50 as weaker potency in that assay.
